Experimental data: article PMC8296622, “Crystal structure and functional characterization of an oligosaccharide dehydrogenase from Pycnoporus cinnabarinus provides insights into fungal breakdown of lignocellulose” (Biotechnology for Biofuels, 2021)

What was measured:
[1] = biological target: T1, ODH (oligosaccharide dehydrogenase) (Trametes cinnabarina, UniProt A0A060SC37); test: X-ray crystallography of soaked crystals (data not shown); conditions: bound at three external surface sugar-binding sites, not in the active site
T1 construct: gene BN946_scf184803.g17
T1 sequence (A0A060SC37 entry or part of it): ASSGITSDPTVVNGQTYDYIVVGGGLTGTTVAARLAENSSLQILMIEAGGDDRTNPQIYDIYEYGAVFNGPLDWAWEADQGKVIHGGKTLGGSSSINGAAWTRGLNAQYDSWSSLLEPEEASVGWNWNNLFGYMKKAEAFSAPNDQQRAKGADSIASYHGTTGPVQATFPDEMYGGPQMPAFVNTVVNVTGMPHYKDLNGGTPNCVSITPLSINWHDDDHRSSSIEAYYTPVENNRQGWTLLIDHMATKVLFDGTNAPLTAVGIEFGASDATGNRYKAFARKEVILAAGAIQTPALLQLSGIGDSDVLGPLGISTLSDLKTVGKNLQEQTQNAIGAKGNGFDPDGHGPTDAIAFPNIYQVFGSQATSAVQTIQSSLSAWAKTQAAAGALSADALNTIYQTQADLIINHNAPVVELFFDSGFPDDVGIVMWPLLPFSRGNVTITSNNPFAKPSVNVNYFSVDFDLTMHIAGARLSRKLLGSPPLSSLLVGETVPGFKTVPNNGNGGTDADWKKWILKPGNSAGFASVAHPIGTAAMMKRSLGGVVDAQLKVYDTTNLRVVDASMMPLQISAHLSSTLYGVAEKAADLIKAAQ

[2] = biological target: T1, ODH (oligosaccharide dehydrogenase); test: X-ray crystallography; format: binding; conditions: ligand-free (sugar-free) enzyme, 1.6 Å; non-covalently bound, oxidized FAD

OC[C@H]1O[C@@H](O[C@H]2[C@H](O)[C@@H](O)C(O)O[C@@H]2CO)[C@H](O)[C@@H](O)[C@@H]1O (mixture of isomers) [G4G, cellobiose]
X-ray crystallography of soaked crystals (data not shown) [1]: the ligand was clearly bound to (and modeled at) the three SBSs (data not shown)

Cc1cc2nc3c(=O)[nH]c(=O)nc-3n(C[C@H](O)[C@H](O)[C@H](O)COP(=O)(O)OP(=O)(O)OC[C@H]3O[C@@H](n4cnc5c(N)ncnc54)[C@H](O)[C@@H]3O)c2cc1C [FAD]
X-ray crystallography [2]: The FAD molecule is non-covalently bound to the protein
